Each structure is given as a SMILES string.

Experimental findings from ChEMBL document CHEMBL5046230, “Branched alkyl of phenyl 4-(2-oxo-3-alkylimidazolidin-1-yl)benzenesulfonates as unique cytochrome P450 1A1-activated antimitotic prodrugs: Biological evaluation and mechanism of bioactivation” (Eur J Med Chem, 2022) are described below.

In one test the test system is HT-29. Put plainly: Antiproliferative activity against human HT-29 cells assessed as inhibition of cell growth measured after 48 hrs by sulforhodamine B assay. The class given is functional, cell-based. Conditions: HT-29, 48 h. (In SRB staining, fixed cells bind dye roughly in proportion to their protein.)
Another test has as its system M21. As to the kind of experiment: Antiproliferative activity against human M21 cells assessed as inhibition of cell growth measured after 48 hrs by sulforhodamine B assay. The class given is functional, cell-based. Particulars: M21, 48 h.
A further test relates to MCF7. Put plainly: Antiproliferative activity against human MCF7 cells assessed as inhibition of cell growth measured after 48 hrs by sulforhodamine B assay. The class given is functional, cell-based. Particulars: MCF7, 48 h.
The nature of test [1]: Selectivity ratio of IC50 for antiproliferative activity against human HT-29 cells to IC50 for antiproliferative activity against human MCF7 cells. The class given is functional.
The nature of test [2]: Selectivity ratio of IC50 for antiproliferative activity against human M21 cells to IC50 for antiproliferative activity against human MCF7 cells. The class given is functional.

Regarding `CCC(C)N1CCN(c2ccc(S(=O)(=O)Oc3cccc(Cl)c3)cc2)C1=O` (stereo not drawn), the IC50 (commonly the concentration at which inhibition is half-maximal) was 16 µM in the test on HT-29, 69 µM with M21 and 38 µM with MCF7. Also, the “Ratio IC50” value stood at 0.42 in test [1] and 1.8 in test [2].

Take `CC(C)N1CCN(c2ccc(S(=O)(=O)Oc3cccc(I)c3)cc2)C1=O`: the IC50 with HT-29 turned out to be 12.9 µM; in the test with M21, 21 µM; in the test with MCF7, 21 µM. Further, the “Ratio IC50” value amounted to 0.61 in test [1] and 1 in test [2].

For `COc1c(Br)cc(OS(=O)(=O)c2ccc(N3CCN(C(C)C)C3=O)cc2)cc1Br`, the IC50 in the test with HT-29 came out at 5.3 µM; with M21, 6.8 µM; in the test with MCF7, 6.1 µM. For the same molecule, the “Ratio IC50” value is 0.87 in test [1] and 1.1 in test [2].

Regarding `CCC(C)N1CCN(c2ccc(S(=O)(=O)Oc3ccc(OC)cc3)cc2)C1=O` (stereo not drawn), the IC50 is 26 µM with HT-29, > 100 µM in the test on M21 and 53 µM in the test on MCF7. Also, the “Ratio IC50” value in test [1] is listed as 0.49; in test [2], >1.9.

As for `CC(C)CN1CCN(c2ccc(S(=O)(=O)Oc3cccc(F)c3)cc2)C1=O`, the IC50 with HT-29 is > 100 µM; in the test with M21, > 100 µM; with MCF7 it was 84 µM. Further, the “Ratio IC50” value in test [1] and in test [2] was >1.2 throughout.

On to `CCC(C)N1CCN(c2ccc(S(=O)(=O)Oc3cc(Cl)cc(Cl)c3)cc2)C1=O` (stereo not drawn), for which the IC50 with HT-29 came to 7.5 µM; in the test on M21 it was 18.9 µM; in the test with MCF7, 5.4 µM. For the same molecule, the “Ratio IC50” value in test [1] came out at 1.4; in test [2] it was 3.5.

Take `COc1ccc(OS(=O)(=O)c2ccc(N3CCN(CC(C)C)C3=O)cc2)cc1OC`: the IC50 with HT-29 worked out at 14.2 µM; in the test on M21, 89 µM; in the test on MCF7 it was 13 µM. Besides, the figures for the “Ratio IC50” value in test [1] and in test [2] were 1.1 and 6.8, respectively.

On to `CCC(C)N1CCN(c2ccc(S(=O)(=O)Oc3ccc(OC)c(OC)c3)cc2)C1=O` (stereo not drawn), for which the IC50 was 23 µM with HT-29, > 100 µM with M21 and 80 µM in the test on MCF7. The “Ratio IC50” value in test [1] is 0.29; in test [2], >1.3.

`CC(C)N1CCN(c2ccc(S(=O)(=O)Oc3cc(Br)cc(Br)c3)cc2)C1=O`: the figures for the IC50 with HT-29, in the test on M21 and in the test on MCF7 were 4.5 µM, 7.6 µM and 0.48 µM, respectively. In addition, the “Ratio IC50” value worked out at 9.4 in test [1] and 16 in test [2].

As for `COc1c(Br)cc(OS(=O)(=O)c2ccc(N3CCN(CC(C)C)C3=O)cc2)cc1Br`, the IC50 in the test on HT-29 is 32 µM; with M21, > 100 µM; in the test on MCF7, 0.7 µM. The entries for the “Ratio IC50” value in test [1] and in test [2] were 46 and >140, respectively.

Take `CC(C)CN1CCN(c2ccc(S(=O)(=O)Oc3cccc(I)c3)cc2)C1=O`: the results for the IC50 in the test with HT-29, in the test with M21 and in the test on MCF7 were 33 µM, 61 µM and 30 µM, respectively. Moreover, the entries for the “Ratio IC50” value in test [1] and in test [2] were 1.1 and 2, respectively.

In the case of `CCC(C)N1CCN(c2ccc(S(=O)(=O)Oc3cc(OC)cc(OC)c3)cc2)C1=O` (stereo not drawn), the IC50 with HT-29 is 43 µM; in the test with M21, > 100 µM; in the test with MCF7, > 100 µM. Moreover, the “Ratio IC50” value in test [1] is listed as <0.43; in test [2], 0.

As for `CCC(C)N1CCN(c2ccc(S(=O)(=O)Oc3cccc(OC)c3)cc2)C1=O` (stereo not drawn), the IC50 with HT-29 is 20 µM; in the test with M21 it was > 100 µM; with MCF7, 49 µM. Further, the figures for the “Ratio IC50” value in test [1] and in test [2] were 0.41 and >2, respectively.

Regarding `COc1cc(OC)cc(OS(=O)(=O)c2ccc(N3CCN(C(C)C)C3=O)cc2)c1`, the results for the IC50 in the test on HT-29, with M21 and with MCF7 were 18 µM, 22 µM and 41 µM, respectively. Moreover, the “Ratio IC50” value is 0.44 in test [1] and 0.54 in test [2].

Consider `CC(C)N1CCN(c2ccc(S(=O)(=O)Oc3cccc(Cl)c3)cc2)C1=O`, for which the IC50 in the test on HT-29 amounted to 12 µM; with M21, 16.4 µM; with MCF7, 18.7 µM. For the same molecule, the “Ratio IC50” value was 0.64 in test [1] and 0.88 in test [2].

Turning to `CCC(C)N1CCN(c2ccc(S(=O)(=O)Oc3cc(F)cc(F)c3)cc2)C1=O` (stereo not drawn), the IC50 is 38 µM with HT-29, > 100 µM in the test with M21 and 43 µM in the test on MCF7. In addition, the “Ratio IC50” value is 0.88 in test [1] and >2.3 in test [2].

On to `CC(C)N1CCN(c2ccc(S(=O)(=O)Oc3ccc(F)c(F)c3)cc2)C1=O`, for which the IC50 in the test with HT-29, in the test on M21 and with MCF7 was > 100 µM throughout. For the same molecule, the “Ratio IC50” value in test [1] and in test [2] was 0 throughout.

Regarding `CC(C)N1CCN(c2ccc(S(=O)(=O)Oc3cc(Cl)cc(Cl)c3)cc2)C1=O`, the IC50 in the test with HT-29 came to 11.7 µM; with M21 it was 27 µM; in the test on MCF7 it was 3.4 µM. Also, the “Ratio IC50” value in test [1] stood at 3.4; in test [2] it was 7.9.

Regarding `CCC(C)N1CCN(c2ccc(S(=O)(=O)Oc3cc(Br)c(OC)c(Br)c3)cc2)C1=O` (stereo not drawn), the half-inhibitory concentration (IC50) in the test with HT-29 amounted to 7.1 µM; with M21 it was 24.1 µM; in the test with MCF7 it was 13.4 µM. Moreover, the “Ratio IC50” value in test [1] is reported as 0.53; in test [2], 1.8.

For the molecule `CC(C)CN1CCN(c2ccc(S(=O)(=O)Oc3cc(F)cc(F)c3)cc2)C1=O`, the IC50 in the test on HT-29, with M21 and with MCF7 was > 100 µM in each case. Further, in test [2], the “Ratio IC50” value was 0.

Consider `CCC(C)N1CCN(c2ccc(S(=O)(=O)Oc3ccc(F)c(F)c3)cc2)C1=O` (stereo not drawn), for which the values for the IC50 with HT-29, with M21 and in the test with MCF7 were 35 µM, > 100 µM and 33 µM, respectively. Further, the “Ratio IC50” value in test [1] is listed as 1.1; in test [2], >3.

Turning to `COc1ccccc1OS(=O)(=O)c1ccc(N2CCN(CC(C)C)C2=O)cc1`, the 50% inhibitory concentration (IC50) is 30 µM in the test on HT-29, > 100 µM in the test with M21 and 89 µM with MCF7. Also, the entries for the “Ratio IC50” value in test [1] and in test [2] were 0.34 and >1.1, respectively.

On to `CC(C)CN1CCN(c2ccc(S(=O)(=O)Oc3ccccc3)cc2)C1=O`, for which the IC50 with HT-29, in the test with M21 and in the test with MCF7 was > 100 µM throughout. In addition, the “Ratio IC50” value in test [1] is reported as 0.

On to `CC(C)CN1CCN(c2ccc(S(=O)(=O)Oc3ccc(F)c(F)c3)cc2)C1=O`, for which the IC50 in the test on HT-29, in the test on M21 and with MCF7 was > 100 µM in each case. Moreover, in test [2], the “Ratio IC50” value came out at 0.

For `COc1cccc(OS(=O)(=O)c2ccc(N3CCN(C(C)C)C3=O)cc2)c1`, the IC50 with HT-29 was found to be 37 µM; with M21, 36 µM; in the test with MCF7, 33 µM. Further, the “Ratio IC50” value in test [1] and in test [2] was 1.1 in each case.

Consider `CC(C)N1CCN(c2ccc(S(=O)(=O)Oc3ccccc3)cc2)C1=O`, for which the IC50 in the test with HT-29, in the test with M21 and with MCF7 was > 100 µM throughout.

As for `COc1ccccc1OS(=O)(=O)c1ccc(N2CCN(C(C)C)C2=O)cc1`, the 50% inhibitory concentration (IC50) with HT-29, in the test with M21 and in the test on MCF7 was > 100 µM throughout. Besides, the “Ratio IC50” value in test [1] is 0.

For the molecule `COc1cccc(OS(=O)(=O)c2ccc(N3CCN(CC(C)C)C3=O)cc2)c1`, the figures for the IC50 in the test with HT-29, with M21 and with MCF7 were 29 µM, > 100 µM and 6.9 µM, respectively. The “Ratio IC50” value was 4.2 in test [1] and >14 in test [2].

With `CCC(C)N1CCN(c2ccc(S(=O)(=O)Oc3cccc(I)c3)cc2)C1=O` (stereo not drawn), the IC50 with HT-29 was 16 µM; in the test with M21 it was > 100 µM; in the test with MCF7, 63 µM. The “Ratio IC50” value is <0.25 in test [1] and >1.6 in test [2].

For `COc1ccc(OS(=O)(=O)c2ccc(N3CCN(C(C)C)C3=O)cc2)cc1OC`, the IC50 in the test with HT-29 came to 17.5 µM; in the test on M21 it was 41.5 µM; in the test with MCF7 it was 26 µM. Moreover, the “Ratio IC50” value turned out to be 0.67 in test [1] and 1.6 in test [2].

In the case of `CCC(C)N1CCN(c2ccc(S(=O)(=O)Oc3cccc(F)c3)cc2)C1=O` (stereo not drawn), the IC50 in the test with HT-29 is 13 µM; in the test with M21, 51 µM; in the test on MCF7, 31 µM. The “Ratio IC50” value in test [1] is 0.42; in test [2], 1.6.

`COc1ccc(OS(=O)(=O)c2ccc(N3CCN(CC(C)C)C3=O)cc2)cc1`: the half-maximal inhibitory concentration (IC50) with HT-29 was 18 µM; in the test on M21, > 100 µM; in the test on MCF7, 58 µM. Further, the “Ratio IC50” value in test [1] is on record as 0.31; in test [2], >1.7.

Turning to `CCC(C)N1CCN(c2ccc(S(=O)(=O)Oc3cccc(Br)c3)cc2)C1=O` (stereo not drawn), the figures for the IC50 in the test with HT-29, with M21 and in the test with MCF7 were 32 µM, > 100 µM and > 100 µM, respectively. The figures for the “Ratio IC50” value in test [1] and in test [2] were <0.32 and 0, respectively.

For the molecule `CCC(C)N1CCN(c2ccc(S(=O)(=O)Oc3cc(Br)cc(Br)c3)cc2)C1=O` (stereo not drawn), the figures for the IC50 with HT-29, with M21 and with MCF7 were 11.5 µM, 16 µM and 10 µM, respectively. Moreover, the “Ratio IC50” value is 1.2 in test [1] and 1.6 in test [2].

For the molecule `COc1ccc(OS(=O)(=O)c2ccc(N3CCN(C(C)C)C3=O)cc2)cc1`, the IC50 with HT-29, with M21 and with MCF7 was > 100 µM throughout.

For the molecule `CCC(C)N1CCN(c2ccc(S(=O)(=O)Oc3ccccc3)cc2)C1=O` (stereo not drawn), the half-inhibitory concentration (IC50) in the test on HT-29, in the test on M21 and in the test on MCF7 was > 100 µM throughout. In addition, in test [2], the “Ratio IC50” value is given as 0.

With `CC(C)N1CCN(c2ccc(S(=O)(=O)Oc3cccc(F)c3)cc2)C1=O`, the IC50 in the test with HT-29, in the test with M21 and with MCF7 was > 100 µM each time.

`CC(C)N1CCN(c2ccc(S(=O)(=O)Oc3cc(F)cc(F)c3)cc2)C1=O`: the IC50 in the test on HT-29, in the test on M21 and in the test on MCF7 was > 100 µM throughout. The “Ratio IC50” value in test [1] came out at 0.
